Test results taken from US20200164038A1, “MODIFIED NUCLEOSIDE, NUCLEOTIDE, AND NUCLEIC ACID COMPOSITIONS” (ModernaTX, Inc., priority 2011, published 2020).
Read-outs that look alike come from different tables or passages of the source.

Legend:
[1] = for Serum Concentration 8-12 hours after administration: Factor IX; for Factor IX Protein Expression, Conc: mice IV, serum 8 hrs
[2] = In vivo study of Factor IX mmRNA IM, serum Factor IX; conditions: mice IM, 2×100 ug/mouse in formulation buffer, 13 hours
Method: Human Factor IX mmRNA (Gen1; fully modified 5-methylcytosine and pseudouridine) formulated in formulation buffer was delivered to mice via intramuscular injection.
The mice were bled at 13 hours after the intramuscular injection to determine the concentration of human the polypeptide in serum in pg/mL.

[3] = Intramuscular and subcutaneous delivery of human EPO mRNA in buffer, serum human EPO; format: in vivo, C57/BL6 mice; conditions: mice, 100 μg, 13 hours
Method: (§1) Mice were intramuscularly or subcutaneously injected with 50 μl of the modified human EPO mRNA (h-EPO), modified luciferase mRNA (Luc) or the formulation buffer (F.Buffer) as described in the dosing chart Table 58. 13 hours post injection blood was collected and serum was analyzed to determine the amount human EPO for each mouse or rat.

[4] = Duration of activity after intramuscular delivery, serum human EPO; format: in vivo, Sprague-Dawley rats; conditions: rats, 100 μg, 24, 48 and 72 hour
Method: The rats were bled 2, 6, 12, 24, 48 and 72 hours after the intramuscular injection to determine the concentration of human EPO in serum at a given time.

[5] = Intramuscular delivery of human EPO mRNA in buffer, serum human EPO; format: in vivo, Sprague-Dawley rats; conditions: rats, 100 μg, 13 hours
Method: as §1

[6] = test system: peripheral blood mononuclear cells (PBMC); assay: In vitro PBMC study, percent modification: IFN-alpha and TNF-alpha by ELISA, PC ratio; format: cell-based, human
Method: (§2) The supernatant was harvested and run by ELISA 22 hours after transfection to determine the protein expression.

IFN-alpha [7] = assay: Chemical modification ranges, modified RNA transfected in PBMC, IFN-alpha ELISA; format: cell-based, human
Method: 960 ng of G-CSF mRNA modified with 5-methylcytosine (5mC) and pseudouridine (pseudoU) or unmodified G-CSF mRNA was transfected with 0.8 uL of Lipofectamine 2000 into peripheral blood mononuclear cells (PBMC) from three normal blood donors (D1, D2, D3). […] The supernatant was harvested and run by ELISA 22 hours after transfection to determine the protein expression. The expression of IFN-alpha and TNF-alpha may be a secondary effect from the transfection of the G-CSF mRNA.

[8] = test system: Human primary foreskin fibroblasts (BJ fibroblasts); assay: Innate immune response transcripts in BJ fibroblasts, single transfection (qPCR); format: cell-based; conditions: 250 ng, 18 hours
Source text: Control samples of poly I:C.

TNF-alpha = assay: Chemical modification ranges, modified RNA transfected in PBMC, TNF-alpha ELISA; format: cell-based, human
Method: as §2

HEK293 cells = assay: In vitro expression of VEGF modified mRNA (ELISA); format: cell-based
IFN-alpha [9] = assay: Cytokine study PBMC, IFN-alpha production ELISA; format: cell-based; conditions: human PBMC, Lipofectamine 2000
Method: The plates were then incubated at 37 C.
Each condition was done in duplicate
Shown in Tables 69 and 70 are the average from 2 separate PBMC donors of the G-CSF and IFN-alpha production over time as measured by specific ELISA.

[10] = Human G-CSF modified RNA lipoplex comparison I.M., S.C., G-CSF ELISA 13 hours; format: in vivo, C57/BL6 mice; conditions: mice I.M. or S.C., 100 μg, saline or lipoplex
Method: A formulation containing 100 μg of either modified human G-CSF mRNA lipoplexed with 30% by volume of RNAIMAX™ with a 5-methylcytosine (5mc) and a pseudouridine (ψ) modification (G-CSF-Gen1-Lipoplex), modified human G-CSF mRNA with a 5mc and ψ modification in saline (G-CSF-Gen1-Saline), modified human G-CSF mRNA with a N1-5-methylcytosine (N1-5mc) and a ψ modification lipoplexed with 30% by volume of RNAIMAX™ (G-CSF-Gen2-Lipoplex), modified human G-CSF mRNA with a N1-5mc and ψ modification in saline (G-CSF-Gen2-Saline), modified luciferase with a 5mc and ψ modification lipoplexed with 30% by volume of RNAIMAX™ (Luc-Lipoplex), or modified luciferase mRNA with a 5mc and ψ modification in saline (Luc-Saline) was delivered intramuscularly (I.M.) or subcutaneously (S.C.) and a control group for each method of administration was giving a dose of 80 uL of the formulation buffer (F. Buffer) to C57/BL6 mice. 13 hours post injection serum and tissue from the site of injection were collected from each mouse and analyzed by G-CSF ELISA to compare human G-CSF protein levels. The results of the human G-CSF protein in mouse serum from the intramuscular administration and the subcutaneous administration results are shown in Table 55.

neutrophil count = assay: Intravenous administration of lipoplexed G-CSF mRNA, neutrophil count; format: in vivo; conditions: mice IV, 50 ug RNA in 10% lipoplex at days 0, 2 and 4; day 5
Method: Neutrophils were measured at days 1, 5 and 8. Controls included non-specific mammalian RNA or the formulation buffer alone (F.Buffer). The mice were bled at days 1, 5 and 8 to determine the effect of mRNA-encoded human G-CSF to increase neutrophil count. The dosing regimen is shown in Table 64 as are the resulting neutrophil counts (thousands/uL; K/uL).

Question: With “Factor IX: human Factor IX mRNA, SEQ ID NO: 10, polyA about 160 nt, Cap1, fully modified with 5-methylcytosine and pseudouridine” as the molecule, how does the “Serum Concentration 8-12 hours after administration” value (“Serum Concentration 8-12 hours” for short) ([1]; IM, 2 × 100 ug) read?
Answer: ~1.6 ng/mL

Question: What about the “Serum Concentration 8-12 hours” value ([1]; IV (LNP), 1 ug) of the same molecule?
Answer: ~40 ng/mL

Question: And the “Serum Concentration 8-12 hours” value ([1]; IV (LNP), 10 ug)?
Answer: ~400 ng/mL

Question: And the “Serum Concentration 8-12 hours” value ([1]; IV (LNP), 100 ug)?
Answer: ~3,000-10,000 ng/ml

Question: What about the “Factor IX Protein Expression, Conc” value ([1]; LNP NPA-029-1, 10 ug) of the same molecule?
Answer: ~380 ng/mL

Question: What about the “Factor IX Protein Expression, Conc” value ([1]; LNP NPA-029-1, 100 ug) of the same molecule?
Answer: 3000 to 11000 ng/mL

Question: What about the “concentration of Factor IX in serum” value [2] of the same molecule?
Answer: 1600 pg/mL

Question: With Luc as the molecule, how does the “human EPO Average Level in serum” value ([3]; IM) read?
Answer: 0 pg/mL

Question: And the “human EPO Average Level in serum” value ([3]; SC)?
Answer: 26.7 pg/mL

Question: And the “human EPO in serum, Avg.” value [4]?
Answer: 37.2 pg/mL

Question: And the “human EPO in serum, Geometric-mean” value [4]?
Answer: 29.2 pg/mL

Question: What about the “human EPO in serum, Avg.” value [5] of the same molecule?
Answer: 24.5 pg/mL

Question: And the “human EPO in serum, Geometric-mean” value [5]?
Answer: 22.4 pg/mL

Question: What does the source list for poly I:C [P(I)P(C)]?
Answer: IFN-alpha Expression ([6]; donor D1, 22 hours): 130.8 pg/mL; TNF-alpha Expression ([6]; donor D1, 22 hours): 765.8 pg/mL; IFN-alpha Expression ([6]; donor D2, 22 hours): 297.1 pg/mL; TNF-alpha Expression ([6]; donor D2, 22 hours): 2362.7 pg/mL; IFN-alpha Expression ([6]; donor D3, 22 hours): 585.2 pg/mL; TNF-alpha Expression ([6]; donor D3, 22 hours): 420.4 pg/mL; IFN-alpha Expression (IFN-alpha [7]; PBMC donor D1): 1498.1 pg/mL; IFN-alpha Expression (IFN-alpha [7]; PBMC donor D2): 216.8 pg/mL; IFN-alpha Expression (IFN-alpha [7]; PBMC donor D3): 238.8 pg/mL; AIM2 transcript level [8]: 0.100 fold-induction relative to HPRT; IFIT-1 transcript level [8]: 71.914 fold-induction relative to HPRT; IFNa transcript level [8]: 0.063 fold-induction relative to HPRT; IFNb transcript level [8]: 1.523 fold-induction relative to HPRT; IL6 transcript level [8]: 2.8 fold-induction relative to HPRT; OAS-1 transcript level [8]: 8.628 fold-induction relative to HPRT; PKR transcript level [8]: 10.326 fold-induction relative to HPRT; RIG-I transcript level [8]: 30.0 fold-induction relative to HPRT; TNFa transcript level [8]: 0.264 fold-induction relative to HPRT; TNF-alpha Expression (TNF-alpha; PBMC donor D1): 61.2 pg/mL; TNF-alpha Expression (TNF-alpha; PBMC donor D2): 4.4 pg/mL; TNF-alpha Expression (TNF-alpha; PBMC donor D3): 69.1 pg/mL

B1: VEGF-A: modified mRNA VEGF-A SEQ ID NO 19, Cap1, fully modified with 5-methylcytosine and pseudouridine, complexed with Lipofectamine2000 (nucleic acid, listed as Homo sapiens)
chain: GGGAAAUAAGAGAGAAAAGAAGAGUAAGAAGAAAUAUAAGAGCCACCAUGAACUUUCUCUUGUCAUGGGUGCACUGGAGCCUUGCGCUGCUGCUGUAUCUUCAUCACGCUAAGUGGAGCCAGGCCGCACCCAUGGCGGAGGGUGGCGGACAGAAUCACCACGAAGUAGUCAAAUUCAUGGACGUGUACCAGAGGUCGUAUUGCCAUCCGAUUGAAACUCUUGUGGAUAUCUUUCAAGAAUACCCCGAUGAAAUCGAGUACAUUUUCAAACCGUCGUGUGUCCCUCUCAUGAGGUGCGGGGGAUGCUGCAAUGAUGAAGGGUUGGAGUGUGUCCCCACGGAGGAGUCGAAUAUCACAAUGCAAAUCAUGCGCAUCAAACCACAUCAGGGUCAGCAUAUUGGAGAGAUGUCCUUUCUCCAGCACAACAAAUGUGAGUGUAGACCGAAGAAGGACCGAGCCCGACAGGAAAACCCAUGCGGACCGUGCUCCGAGCGGCGCAAACACUUGUUCGUACAAGACCCCCAGACAUGCAAGUGCUCAUGUAAGAAUACCGAUUCGCGGUGUAAGGCGAGACAGCUGGAAUUGAACGAGCGCACGUGUAGGUGCGACAAGCCUAGACGGUGAGCUGCCUUCUGCGGGGCUUGCCUUCUGGCCAUGCCCUUCUUCUCUCCCUUGCACCUGUACCUCUUGGUCUUUGAAUAAAGCCUGAGUAGGAAG
modifications: Cap1, polyA tail, 5mC/pseudoU, Lipofectamine2000 complex
Question: What does the source list for B1?
Answer: Protein (HEK293 cells; 2 pg transfected): 0 pg/mL; Protein (HEK293 cells; 10 pg transfected): 0 pg/mL; Protein (HEK293 cells; 39 pg transfected): 0 pg/mL; Protein (HEK293 cells; 610 fg transfected): 0 pg/mL

B2: Gen2 G-CSF mmRNA: human G-CSF mRNA, SEQ ID NO: 6, modified with 5-methylcytidine and N1-methylpseudouridine (nucleic acid, listed as Homo sapiens)
chain: GGGAAAUAAGAGAGAAAAGAAGAGUAAGAAGAAAUAUAAGAGCCACCAUGGCCGGUCCCGCGACCCAAAGCCCCAUGAAACUUAUGGCCCUGCAGUUGCUGCUUUGGCACUCGGCCCUCUGGACAGUCCAAGAAGCGACUCCUCUCGGACCUGCCUCAUCGUUGCCGCAGUCAUUCCUUUUGAAGUGUCUGGAGCAGGUGCGAAAGAUUCAGGGCGAUGGAGCCGCACUCCAAGAGAAGCUCUGCGCGACAUACAAACUUUGCCAUCCCGAGGAGCUCGUACUGCUCGGGCACAGCUUGGGGAUUCCCUGGGCUCCUCUCUCGUCCUGUCCGUCGCAGGCUUUGCAGUUGGCAGGGUGCCUUUCCCAGCUCCACUCCGGUUUGUUCUUGUAUCAGGGACUGCUGCAAGCCCUUGAGGGAAUCUCGCCAGAAUUGGGCCCGACGCUGGACACGUUGCAGCUCGACGUGGCGGAUUUCGCAACAACCAUCUGGCAGCAGAUGGAGGAACUGGGGAUGGCACCCGCGCUGCAGCCCACGCAGGGGGCAAUGCCGGCCUUUGCGUCCGCGUUUCAGCGCAGGGCGGGUGGAGUCCUCGUAGCGAGCCACCUUCAAUCAUUUUUGGAAGUCUCGUACCGGGUGCUGAGACAUCUUGCGCAGCCGUGAAGCGCUGCCUUCUGCGGGGCUUGCCUUCUGGCCAUGCCCUUCUUCUCUCCCUUGCACCUGUACCUCUUGGUCUUUGAAUAAAGCCUGAGUAGGAAG
modifications: 5-methylcytidine and N1-methylpseudouridine modified
Question: Which results are given for B2?
Answer: innate immune recognition, cytokines (IFN-alpha) (IFN-alpha [9]): did not significantly increase cytokines; human G-CSF protein production relative to 5-methylcytosine/pseudouridine modified human G-CSF mRNA [10]: increased human G-CSF protein production

B3: Unmodified G-CSF mRNA: human G-CSF mRNA, SEQ ID NO: 6, having no modifications (natural NTPs) (nucleic acid, listed as Homo sapiens)
chain: GGGAAAUAAGAGAGAAAAGAAGAGUAAGAAGAAAUAUAAGAGCCACCAUGGCCGGUCCCGCGACCCAAAGCCCCAUGAAACUUAUGGCCCUGCAGUUGCUGCUUUGGCACUCGGCCCUCUGGACAGUCCAAGAAGCGACUCCUCUCGGACCUGCCUCAUCGUUGCCGCAGUCAUUCCUUUUGAAGUGUCUGGAGCAGGUGCGAAAGAUUCAGGGCGAUGGAGCCGCACUCCAAGAGAAGCUCUGCGCGACAUACAAACUUUGCCAUCCCGAGGAGCUCGUACUGCUCGGGCACAGCUUGGGGAUUCCCUGGGCUCCUCUCUCGUCCUGUCCGUCGCAGGCUUUGCAGUUGGCAGGGUGCCUUUCCCAGCUCCACUCCGGUUUGUUCUUGUAUCAGGGACUGCUGCAAGCCCUUGAGGGAAUCUCGCCAGAAUUGGGCCCGACGCUGGACACGUUGCAGCUCGACGUGGCGGAUUUCGCAACAACCAUCUGGCAGCAGAUGGAGGAACUGGGGAUGGCACCCGCGCUGCAGCCCACGCAGGGGGCAAUGCCGGCCUUUGCGUCCGCGUUUCAGCGCAGGGCGGGUGGAGUCCUCGUAGCGAGCCACCUUCAAUCAUUUUUGGAAGUCUCGUACCGGGUGCUGAGACAUCUUGCGCAGCCGUGAAGCGCUGCCUUCUGCGGGGCUUGCCUUCUGGCCAUGCCCUUCUUCUCUCCCUUGCACCUGUACCUCUUGGUCUUUGAAUAAAGCCUGAGUAGGAAG
Question: Which “increase in neutrophil count above control” value (neutrophil count) does the source give for B3 here?
Answer: no pharmacologic effect on neutrophil counts
